Consider 38 compounds from US11992535B2, “Compounds and probes for imaging huntingtin protein” (CHDI Foundation, Inc., priority 2019, dated 2024).

The test addresses aggregated MBP-HTT(1-89)Q46-His(6×) (Exonl-Q46) protein (Q46 protein aggregates) (Homo sapiens (Human), UniProt P42858, INS38QQQQQQQQQQQQQQQQQQQQQQQQQ). In words: Q46 Radioligand Binding Assay. The conditions noted are these: read-out: Q46_RBA EC50_. Here is the method: Q46 Radioligand Binding Assay
For radioligand binding assays (RBA) MBP-HTT(1-89)Q46-His(6×) (“Exonl-Q46”) protein was generated based on a previous publication (Scherzinger et al. Cell, Vol. 90, 549-558, Aug. 8, 1997). For experiments 30 μM MBP-Exonl-Q46 was incubated with 150 μg/mL thrombin in assay buffer (150 mM NaCl, 50 mM Tris pH 8.0) and 2 mM CaCl2 for 16 hours at 37° C. Aggregated Exonl-Q46 was pelleted by centrifugation for 5 minutes at 13,000 rpm in a bench top centrifuge and re-dissolved in the same volume of assay buffer. Test compounds were prepared by titration in DMSO at 11 concentrations from 63 μM to 2 nM. For the RBA, Q46 protein aggregates and test compounds were pre-incubated in assay buffer for 20 minutes at room temperature, in 100 μL/well in a 96-well plate (pp, round bottom). Then, ligand was added in 50 μL/well and incubated for 60 minutes at 37° C. Final assay concentrations were 1 μM to 30 μM test compound, 1 μM Exonl-Q46 protein (equivalent monomer concentration) and 0.3 nM ligand [^3H3-methyl]-5-((5-methoxypyridin-2-yl)methoxy)-2-(pyrazin-2-yl)benzo[d]oxazole. Samples were transferred onto GF/B filter plates and washed 2× with 200 μL PBS using a Filtermate Harvester. After drying filter plates for 1 hour at 55° C., the back of the plates were sealed with foil and 30 μL/well scintillation fluid (Packard MicroScint 40) added, incubated for 15 minutes in the dark and counted in a MicroBeta reader. For analysis, replicate data from independent assay plates were normalized towards 0% and 100% inhibition using control wells of vehicle (0% inhibition) and 1 μM unlabelled [^3H3-methyl]-5-((5-methoxypyridin-2-yl)methoxy)-2-(pyrazin-2-yl)benzo[d]oxazole (100% inhibition). IC50 values were determined with a sigmoidal inhibition model with four variables (top, bottom, slope, IC50) in a global fit using the normalized replicate data.

The mark [1] stands for this setting: displacement of 0.3 nM [3H3-methyl]-5-((5-methoxypyridin-2-yl)methoxy)-2-(pyrazin-2-yl)benzo[d]oxazole from 1 μM Exonl-Q46 aggregates, method calls the values IC50.
Where [2] appears, read: same radioligand displacement on Exonl-Q46 aggregates.

By EC50 is commonly meant the concentration that produces a half-maximal response.

Where two headings read alike, the source gives them in different places.

Chain of aggregated MBP-HTT(1-89)Q46-His(6×) (Exonl-Q46) protein (Q46 protein aggregates) (P42858 other isoform, or with tags, fused parts or gaps, stated change not applied): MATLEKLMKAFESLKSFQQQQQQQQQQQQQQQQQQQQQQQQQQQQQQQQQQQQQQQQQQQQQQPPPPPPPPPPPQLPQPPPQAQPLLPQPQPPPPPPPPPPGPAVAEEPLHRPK

Take `COc1ccc(COc2ccc3c(c2)CN(C(=O)c2ccc(=O)n(C)c2)CC3)nc1` [Example 41, 5-(7-((5-Methoxypyridin-2-yl)methoxy)-1,2,3,4-tetrahydroisoquin-oline-2-carbonyl)-1-methylpyridin-2(1H)-one]: the EC50 was 0.0235 µM under setting [1] and less than 0.1 µM under setting [2]. In the same order, the values of `COc1ccc(COc2ccc3c(c2)CN(C(=O)C2CCN(C)CC2)CC3)nc1` [Example 1.15] are 0.951 µM and greater than 0.5 µM. In the same order, the values of `COc1ccc(COc2cnc3c(c2)CN(C(=O)c2ccnc(OCCF)c2)CC3)nc1` [Example 1.23] are 0.023 µM and less than 0.1 µM. In the same order, the values of `COc1ccc(COc2ccc3c(c2)CN(C(=O)c2ccc(=O)n(CCCF)c2)CC3)nc1` [Example 1.19] are 0.00545 µM and less than 0.1 µM. As to `COCCOc1ccc(C(=O)N2CCc3ncc(OCc4ccc(OC)cn4)cc3C2)cn1` [Example 24.2], the EC50 under setting [2] was less than 0.1 µM.

In the case of `COc1ccc(COc2ccc3c(c2)CN(C(=O)c2cccnc2)CC3)nc1` [Example 1.9], the EC50 was 0.0278 µM under setting [1] and less than 0.1 µM under setting [2]. The like results for `COc1ccc(COc2ccc3c(c2)CN(C(=O)N2CCN(C)CC2)CC3)nc1` [Example 4, 7-[(5-Methoxypyridin-2-yl)methoxy]-2-(4-methylpiperazine-1-carbonyl)-1,2,3,4-tetrahydroisoquinoline] were, in that order, 0.0732 µM and less than 0.1 µM. In the same order, the values of `COc1ccc(COc2ccc3c(c2)CN(C(=O)c2ccc(=O)n(CCF)n2)CC3)nc1` [Example 1.20] are 0.00424 µM and less than 0.1 µM.

In the case of `COc1ccc(COc2cnc3c(c2)CN(C(=O)c2cncc(OCCF)c2)CC3)nc1` [Example 1.18], the EC50 by setting is: under setting [1], 0.065 µM; under setting [2], less than 0.1 µM. In the same order, the values of `COc1ccc(COc2ccc3c(c2)CN(C(=O)c2ccc(=O)n(CCF)c2)CC3)nc1` [Example 34.1] are 0.00513 µM and less than 0.1 µM. In the same order, the values of `COc1ccc(C(=O)Nc2ccc3c(c2)CN(C(=O)c2ccc(OC)nc2)CC3)nc1` [Example 12] are 0.00172 µM and less than 0.1 µM. As to `COc1ccc(COc2ccc3c(c2)CN(C(=O)c2cncc(OC)c2)CC3)nc1` [Example 1.5], the EC50 under setting [1] was 0.0056 µM and the EC50 under setting [2] was less than 0.1 µM. The like results for `COc1ccc(COc2cnc3c(c2)CN(c2ccc(OC)cn2)CC3)nc1` [Example 27, 6-(5-Methoxypyridin-2-yl)-3-[(5-methoxypyridin-2-yl)methoxy]-5,6,7,8-tetrahydro-1,6-naphthyridine] were, in that order, 0.00319 µM and less than 0.1 µM. As to `COc1ccc(C(=O)N2CCc3ccc(OCc4ccc(O)cn4)cc3C2)cn1` [Example 35.1, (7-((5-Hydroxypyridin-2-yl)methoxy)-3,4-dihydroisoquinolin-2(1H)-yl)(6-methoxypyridin-3-yl)methanone], the EC50 was 0.00844 µM under setting [1] and less than 0.1 µM under setting [2]. Consider `COc1ccc(COc2ccc3c(c2)CN(C(=O)OCc2ccc(OC)nc2)CC3)nc1` [Example 5.1], for which the EC50 was 0.00165 µM under setting [1] and less than 0.1 µM under setting [2].

Turning to `COc1ccc(COc2ccc3c(c2)CN(c2ncc(OC)cn2)CC3)nc1` [Example 3, 7-[(5-Methoxypyridin-2-yl)methoxy]-2-(5-methoxypyrimidin-2-yl)-1,2,3,4-tetrahydroisoquinoline], the EC50 is 0.00126 µM under setting [1] and less than 0.1 µM under setting [2]. `COc1ccc(COc2cnc3c(c2)CN(C(=O)c2ccnc(OC)c2)CC3)nc1` [Example 1.21]: the EC50 is, setting by setting: under setting [1], 0.0163 µM; under setting [2], less than 0.1 µM. In the same order, the values of `COc1ccc(COc2ccc3c(c2)CCN(C(=O)c2ccc(=O)n(C)n2)C3)nc1` [Example 1.3] are 0.0464 µM and less than 0.1 µM.

For the compound `COc1ccc(COc2ccc3c(c2)CN(c2ccc(OC)nc2)CC3)nc1` [Example 6], the EC50 is, setting by setting: under setting [1], 0.00221 µM; under setting [2], less than 0.1 µM.

Regarding `COc1ccc(COc2cnc3c(c2)CN(C(=O)c2ccc(OC)nc2)CC3)nc1` [Example 1.16], the EC50 was 0.00573 µM under setting [1] and less than 0.1 µM under setting [2].

`COc1ccc(COc2cccc3c2CCN(C(=O)c2ccc(OC)nc2)C3)nc1` [Example 1.12]: the EC50 was 0.0341 µM under setting [1] and less than 0.1 µM under setting [2]. In the same order, the values of `COc1ccc(COc2ccc3c(c2)C(C)N(C(=O)c2ccc(OC)nc2)CC3)nc1` (centres unmarked) [Example 9, 7-[(5-Methoxypyridin-2-yl)methoxy]-2-(6-methoxypyridine-3-carbonyl)-1-methyl-1,2,3,4-tetrahydroisoquinoline] are 0.0145 µM and less than 0.1 µM. In the same order, the values of `CC(=O)N1CCc2ccc(OCc3ccc(O)cn3)cc2C1` [Example 32, 1-{7-[(5-Hydroxypyridin-2-yl)methoxy]-1,2,3,4-tetrahydroisoquinolin-2-yl}ethan-1-one] are 0.191 µM and 0.1 to 0.5 µM. As to `COc1ccc(COc2ccc3c(c2)CN(c2ccc(OC)nc2)C(=O)C3)nc1` [Example 10, 7-[(5-Methoxypyridin-2-yl)methoxy]-2-(6-methoxypyridin-3-yl)-1,2,3,4-tetrahydroisoquinolin-3-one], the EC50 runs as follows: under setting [1], 0.186 µM; under setting [2], 0.1 to 0.5 µM. Turning to `COc1ccc(COc2ccc3c(c2)CN(C(=O)c2ccc(OCF)nc2)CC3)nc1` [Example 36, (6-(Fluoromethoxy)pyridin-3-yl)(7-((5-methoxypyridin-2-yl)methoxy)-3,4-dihydroisoquinolin-2(1H)-yl)methanone], the concentration for a half-maximal effect (EC50) runs as follows: under setting [1], 0.00196 µM; under setting [2], less than 0.1 µM. For the compound `COc1ccc(Cn2c3c(ccc2=O)CCN(C(=O)c2ccc(OC)nc2)C3)nc1` [Example 26.1], under setting [2], the EC50 is greater than 0.5 µM. Regarding `COc1ccc(C(=O)N(C)c2ccc3c(c2)CN(c2ccc(OC)nc2)CC3)nc1` [Example 17, 5-Methoxy-N-[2-(6-methoxypyridin-3-yl)-1,2,3,4-tetrahydroisoquinolin-7-yl]-N-methylpyridine-2-carboxamide], the EC50 is, setting by setting: under setting [1], 0.333 µM; under setting [2], 0.1 to 0.5 µM. With `COc1ccc(C(=O)N2CCc3ccc(OCc4ccc(OC)cn4)cc3C2)cc1` [Example 1.26], the EC50 is 0.00178 µM under setting [1] and less than 0.1 µM under setting [2]. In the same order, the values of `COc1ccc(COc2ccc3c(c2)CN(C(=O)c2ccc(OC)cn2)CC3)nc1` [Example 1.10] are 0.005 µM and less than 0.1 µM.

Turning to `COc1ccc(COc2ccc3c(c2)CNCC3)nc1` [Example 1.30, 7-[(5-Methoxypyridin-2-yl)methoxy]-1,2,3,4-tetrahydroisoquinolin-2-ium chloride], the EC50 under setting [1] stood at 1 µM and the EC50 under setting [2] was greater than 0.5 µM. As to `COc1ccc(COc2ccc3c(c2)CN(C(=O)c2ccc(OC)nc2)C(C)C3)nc1` (centres unmarked) [Example 31, 7-[(5-Methoxypyridin-2-yl)methoxy]-2-(6-methoxypyridine-3-carbonyl)-3-methyl-1,2,3,4-tetrahydroisoquinoline], the EC50 under setting [1] came out at 0.108 µM and the EC50 under setting [2] lay in the range of 0.1 to 0.5 µM. As for `COc1ccc(COc2ccc3c(c2)CN(c2cncc(OC)c2)CC3)nc1` [Example 6.1], the EC50 under setting [1] was 0.00265 µM and the EC50 under setting [2] was less than 0.1 µM. The like results for `COc1ccc(OCCOc2ccc3c(c2)CN(C(=O)c2ccc(OC)nc2)CC3)nc1` [Example 19, 7-{2-[(5-Methoxypyridin-2-yl)oxy]ethoxy}-2-(6-methoxypyridine-3-carbonyl)-1,2,3,4-tetrahydroisoquinoline] were, in that order, 0.0374 µM and less than 0.1 µM. For the compound `COc1ccc(COc2cnc3c(c2)CN(c2ncc(OC)cn2)CC3)nc1` [Example 6.2], the EC50 under setting [1] is 0.00197 µM and the EC50 under setting [2] is less than 0.1 µM.

`C=CCOc1ccc(C(=O)N2CCc3ncc(OCc4ccc(OC)cn4)cc3C2)cn1` [Example 24.1]: the EC50 by setting is: under setting [1], 0.00301 µM; under setting [2], less than 0.1 µM. Take `COc1ccc(C(=O)N2CCc3ccc(OCc4cnn(C)c4)cc3C2)cn1` [Example 1.27]: the 50% effective concentration (EC50) runs as follows: under setting [1], 0.0524 µM; under setting [2], less than 0.1 µM. The like results for `COc1ccc(COc2ccc3c(c2)CN(c2ccn(C)c(=O)c2)CC3)nc1` [Example 27.2] were, in that order, 0.26 µM and 0.1 to 0.5 µM.

With `COc1ccc(COc2ccc3c(c2)CN(C(=O)c2ccc(OC)nc2)CCO3)nc1` [Example 25, 7-[(5-Methoxypyridin-2-yl)methoxy]-4-(6-methoxypyridine-3-carbonyl)-2,3,4,5-tetrahydro-1,4-benzoxazepine], the 50% effective concentration (EC50) was 0.153 µM under setting [1] and 0.1 to 0.5 µM under setting [2].
